Assays:
GST-Bcl-2 = GST-Bcl-2 (Homo sapiens, UniProt P10415); test: TR-FRET binding assay, GST-Bcl-2 with F-Bak peptide probe; conditions: for Ki: TR-FRET Binding Affinity
How it was run: (§1)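 Competitive TR-FRET: GST-fusion protein, fluorescent Bak peptide probe and Tb-labelled anti-GST antibody incubated with compound dilution series (starting 50 μM as 2× stock, 10% DMSO) for 3 h at RT. Excitation 340/35 nm; Ki derived via Wang's exact competitive-binding equation.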

GST-Bcl-XL = GST-Bcl-XL (Homo sapiens, UniProt Q07817); test: TR-FRET binding assay, GST-Bcl-XL with F-Bak peptide probe; conditions: TR-FRET Binding Affinity
How it was run: as §1

[1] = TR-FRET, Bcl-XL Ki divided by Bcl-2 Ki
[2] = ratio of TR-FRET Ki values, Bcl-XL over Bcl-2
[3] = GST-Bcl-XL, F-Bak peptide probe

GST-Bcl-XL, sequence (Q07817 whole entry): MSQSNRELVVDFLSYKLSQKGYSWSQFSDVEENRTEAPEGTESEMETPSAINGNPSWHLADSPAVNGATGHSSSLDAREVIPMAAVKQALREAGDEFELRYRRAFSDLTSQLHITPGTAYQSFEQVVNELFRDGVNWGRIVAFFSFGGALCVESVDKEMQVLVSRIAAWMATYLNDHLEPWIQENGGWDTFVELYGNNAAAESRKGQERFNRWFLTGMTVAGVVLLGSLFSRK
GST-Bcl-2, sequence (P10415 whole entry, the tested form may be a part): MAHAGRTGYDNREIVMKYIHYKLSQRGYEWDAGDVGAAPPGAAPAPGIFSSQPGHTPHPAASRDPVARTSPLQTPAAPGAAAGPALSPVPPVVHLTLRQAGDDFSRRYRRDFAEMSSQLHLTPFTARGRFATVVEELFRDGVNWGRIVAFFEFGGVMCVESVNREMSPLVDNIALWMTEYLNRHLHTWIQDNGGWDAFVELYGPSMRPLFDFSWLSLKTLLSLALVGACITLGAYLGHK

| Structure (SMILES) | Ki (GST-Bcl-2) [nM] | Binding selectivity ratio (Bcl-XL Ki/Bcl-2 Ki) (GST-Bcl-2; [1]) | Ki (GST-Bcl-XL) [nM] | Ki (GST-Bcl-2; GST-Bcl-2, F-Bak peptide probe) [nM] | Binding selectivity ratio (Bcl-XL Ki/Bcl-2 Ki) (GST-Bcl-2; [2]) | Ki (GST-Bcl-XL; [3]) [nM] |
| --- | --- | --- | --- | --- | --- | --- |
| CC1(C)CCC(CN2CCN(c3ccc(C(=O)NS(=O)(=O)c4ccc(N[C@H]5CC[C@H](N6CCOCC6)CC5)c([N+](=O)[O-])c4)c(Oc4cccc5[nH]cnc45)c3)CC2)=C(c2ccc(Cl)cc2)C1 [Example 452, Trans-2-(1H-benzimidazol-4-yloxy)-4-(4-{[2-(4-chlorophenyl)-4,4-dimethylcyclohex-1-en-1-yl]methyl}piperazin-1-yl)-N-({4-[(4-morpholin-4-ylcyclohexyl)amino]-3-nitrophenyl}sulfonyl)benzamide] | < 0.01 | 600.4 | 6 |  |  |  |
| CC1(C)CCC(CN2CCN(c3ccc(C(=O)NS(=O)(=O)c4cnc(OC[C@]5(F)CC[C@](C)(O)CC5)c(Cl)c4)c(Oc4cccc5[nH]ncc45)c3)CC2)=C(c2ccc(Cl)cc2)C1 [Example 513, N-({5-chloro-6-[(trans-1-fluoro-4-hydroxy-4-methylcyclohexyl)methoxy]pyridin-3-yl}sulfonyl)-4-(4-{[2-(4-chlorophenyl)-4,4-dimethylcyclohex-1-en-1-yl]methyl}piperazin-1-yl)-2-(1H-indazol-4-yloxy)benzamide] | < 0.01 | >646.2 | 6.46 |  |  |  |
| CC1(C)CCC(CN2CCN(c3ccc(C(=O)NS(=O)(=O)c4ccc(NC5CCN(C6CCOCC6)CC5)c([N+](=O)[O-])c4)c(Nc4cccnc4)c3)CC2)=C(c2ccc(Cl)cc2)C1 [Example 397, 4-(4-{[2-(4-chlorophenyl)-4,4-dimethylcyclohex-1-en-1-yl]methyl}piperazin-1-yl)-N-({3-nitro-4-[(1-tetrahydro-2H-pyran-4-ylpiperidin-4-yl)amino]phenyl}sulfonyl)-2-(pyridin-3-ylamino)benzamide] |  |  |  | 23 | >28730.6 | > 660000 |
| CN(C)CCCNc1ccc(S(=O)(=O)NC(=O)c2ccc(N3CCN(Cc4ccccc4-c4ccc(Cl)cc4)CC3)cc2Oc2ccc3[nH]ccc3c2)cc1S(=O)(=O)C(F)(F)F [Example 64, 4-{4-[(4′-chloro-1,1′-biphenyl-2-yl)methyl]piperazin-1-yl}-N-({4-{[3-(dimethylamino)propyl]amino}-3-[(trifluoromethyl)sulfonyl]phenyl}sulfonyl)-2-(1H-indol-5-yloxy)benzamide] |  |  |  | 0.523 |  | 40.3 |
| CC1(C)CCC(CN2CCN(c3ccc(C(=O)NS(=O)(=O)c4ccc(NCC5CCOCC5)c([N+](=O)[O-])c4)c(Oc4ccc5[nH]ccc5c4)c3)CC2CO)=C(c2ccc(Cl)cc2)C1 (stereo not shown) [Example 236, 4-[4-{[2-(4-chlorophenyl)-4,4-dimethylcyclohex-1-en-1-yl]methyl}-3-(hydroxymethyl)piperazin-1-yl]-2-(1H-indol-5-yloxy)-N-({3-nitro-4-[(tetrahydro-2H-pyran-4-ylmethyl)amino]phenyl}sulfonyl)benzamide] |  |  |  | 0.369 |  | > 660 |
| CN(C)CCNc1ccc(S(=O)(=O)NC(=O)c2ccc(N3CCN(Cc4ccccc4-c4ccc(Cl)cc4)CC3)cc2Oc2ccccc2)cc1[N+](=O)[O-] [Example 153, 4-{4-[(4′-chloro-1,1′-biphenyl-2-yl)methyl]piperazin-1-yl}-N-[(4-{[2-(dimethylamino)ethyl]amino}-3-nitrophenyl)sulfonyl]-2-phenoxybenzamide] |  |  |  | 0.265 |  | 93 |
| CC1(C)CCC(CN2CCN(c3ccc(C(=O)NS(=O)(=O)c4ccc(NC[C@H]5CN(C6CC6)CCO5)c([N+](=O)[O-])c4)c(Oc4cccc5[nH]cnc45)c3)CC2)=C(c2ccc(Cl)cc2)C1 [Example 530, 2-(1H-benzimidazol-4-yloxy)-4-(4-{[2-(4-chlorophenyl)-4,4-dimethylcyclohex-1-en-1-yl]methyl}piperazin-1-yl)-N-{[4-({[(2S)-4-cyclopropylmorpholin-2-yl]methyl}amino)-3-nitrophenyl]sulfonyl}benzamide] | < 0.01 | >7666.0 | 76.7 |  |  |  |
| O=C(NS(=O)(=O)c1ccc(NCC2CCOCC2)c([N+](=O)[O-])c1)c1ccc(N2CCN(Cc3ccccc3-c3ccc(Cl)cc3)CC2)cc1Oc1cccnc1 [Example 79, 4-{4-[(4′-chloro-1,1′-biphenyl-2-yl)methyl]piperazin-1-yl}-N-({3-nitro-4-[(tetrahydro-2H-pyran-4-ylmethyl)amino]phenyl}sulfonyl)-2-(pyridin-3-yloxy)benzamide] |  |  |  | 2.05 |  | 97.2 |
| O=C(NS(=O)(=O)c1ccc(NCC2CCOCC2)c([N+](=O)[O-])c1)c1ccc(N2CCN(Cc3cc(OCCN4CCOCC4)ccc3-c3ccc(Cl)cc3)CC2)cc1Oc1ccccc1 [Example 115, 4-(4-{[4′-chloro-4-(2-morpholin-4-ylethoxy)-1,1′-biphenyl-2-yl]methyl}piperazin-1-yl)-N-({3-nitro-4-[(tetrahydro-2H-pyran-4-ylmethyl)amino]phenyl}sulfonyl)-2-phenoxybenzamide] |  |  |  | 0.176 |  | 27.5 |
| O=C(NS(=O)(=O)c1ccc(NCC2CCOCC2)c([N+](=O)[O-])c1)c1ccc(N2CCN(Cc3cc(N4CCOCC4)ccc3-c3ccc(Cl)cc3)CC2)cc1Oc1cccc2[nH]ccc12 [Example 198, 4-{4-[(4′-chloro-4-morpholin-4-yl-1,1′-biphenyl-2-yl)methyl]piperazin-1-yl}-2-(1H-indol-4-yloxy)-N-({3-nitro-4-[(tetrahydro-2H-pyran-4-ylmethyl)amino]phenyl}sulfonyl)benzamide] |  |  |  | 3.97 |  | > 660 |
| Cn1cncc1COc1ncc(S(=O)(=O)NC(=O)c2ccc(N3CCN(CC4=C(c5ccc(Cl)cc5)CC(C)(C)CC4)CC3)cc2Oc2cccc3[nH]ncc23)cc1Cl [Example 486, N-({5-chloro-6-[(1-methyl-1H-imidazol-5-yl)methoxy]pyridin-3-yl}sulfonyl)-4-(4-{[2-(4-chlorophenyl)-4,4-dimethylcyclohex-1-en-1-yl]methyl}piperazin-1-yl)-2-(1H-indazol-4-yloxy)benzamide] | 0.328 | 77.6 | 25.5 |  |  |  |
| CN1CCN(CCNc2ccc(S(=O)(=O)NC(=O)c3ccc(N4CCN(Cc5ccccc5-c5ccc(Cl)cc5)CC4)cc3Oc3ccccc3)cc2[N+](=O)[O-])CC1 [Example 85, 4-{4-[(4′-chloro-1,1′-biphenyl-2-yl)methyl]piperazin-1-yl}-N-[(4-{[2-(4-methylpiperazin-1-yl)ethyl]amino}-3-nitrophenyl)sulfonyl]-2-phenoxybenzamide] |  |  |  | 0.236 |  | 11.5 |
| CC1(C)CCC(CN2CCN(c3ccc(C(=O)NS(=O)(=O)c4ccc(NCC5CN(CC(F)F)CCO5)c([N+](=O)[O-])c4)c(Oc4cccc5[nH]cnc45)c3)CC2)=C(c2ccc(Cl)cc2)C1 (stereo not shown) [Example 415, 2-(1H-benzimidazol-4-yloxy)-4-(4-{[2-(4-chlorophenyl)-4,4-dimethylcyclohex-1-en-1-yl]methyl}piperazin-1-yl)-N-{[4-({[4-(2,2-difluoroethyl)morpholin-2-yl]methyl}amino)-3-nitrophenyl]sulfonyl}benzamide] |  |  |  | 0.002 | 17326.9 | 26.9 |
| CN(C)CCCNc1ccc(S(=O)(=O)NC(=O)c2ccc(N3CCN(Cc4ccccc4-c4ccc(Cl)cc4)CC3)cc2Oc2ccc3cc[nH]c3c2)cc1[N+](=O)[O-] [Example 47, 4-{4-[(4′-chloro-1,1′-biphenyl-2-yl)methyl]piperazin-1-yl}-N-[(4-{[3-(dimethylamino)propyl]amino}-3-nitrophenyl)sulfonyl]-2-(1H-indol-6-yloxy)benzamide] |  |  |  | 6.63 |  | 104 |

— US9073855B2, “BCL-2 selective apoptosis-inducing agents for the treatment of cancer and immune diseases” (AbbVie Inc., priority 2008, dated 2015)
